One assay has as its target T1, Mer (Homo sapiens, UniProt Q12866).
T1 construct: host or cells: 293A cells (Thermo Fisher #R70507)
T1 sequence (Q12866 21-999): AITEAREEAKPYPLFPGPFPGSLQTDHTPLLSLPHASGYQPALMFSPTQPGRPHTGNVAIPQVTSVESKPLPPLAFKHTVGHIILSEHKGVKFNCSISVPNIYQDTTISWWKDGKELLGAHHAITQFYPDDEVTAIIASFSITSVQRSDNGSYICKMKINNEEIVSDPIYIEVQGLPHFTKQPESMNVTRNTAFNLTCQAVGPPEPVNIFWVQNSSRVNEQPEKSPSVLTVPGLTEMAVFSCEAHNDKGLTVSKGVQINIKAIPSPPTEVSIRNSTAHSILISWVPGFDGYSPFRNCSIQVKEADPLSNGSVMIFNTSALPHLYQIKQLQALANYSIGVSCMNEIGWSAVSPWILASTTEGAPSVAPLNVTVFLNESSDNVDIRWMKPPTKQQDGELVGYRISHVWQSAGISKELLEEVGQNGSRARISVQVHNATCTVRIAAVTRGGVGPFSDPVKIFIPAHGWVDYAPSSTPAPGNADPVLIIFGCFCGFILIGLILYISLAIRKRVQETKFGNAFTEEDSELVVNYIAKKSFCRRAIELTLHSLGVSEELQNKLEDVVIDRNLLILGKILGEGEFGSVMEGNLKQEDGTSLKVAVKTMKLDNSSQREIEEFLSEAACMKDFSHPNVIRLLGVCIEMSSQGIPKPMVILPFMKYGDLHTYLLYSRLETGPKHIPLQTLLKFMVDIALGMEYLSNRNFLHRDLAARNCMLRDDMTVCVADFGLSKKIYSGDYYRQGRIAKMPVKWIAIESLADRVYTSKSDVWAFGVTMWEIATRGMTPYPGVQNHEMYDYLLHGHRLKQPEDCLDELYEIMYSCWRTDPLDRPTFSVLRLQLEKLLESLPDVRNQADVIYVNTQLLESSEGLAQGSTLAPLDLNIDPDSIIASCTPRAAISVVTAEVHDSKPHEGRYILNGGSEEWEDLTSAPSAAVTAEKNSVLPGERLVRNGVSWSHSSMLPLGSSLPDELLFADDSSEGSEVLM
Briefly: Mer autophosphorylation ELISA in transient transfected 293A cells. Format: cell-based. The settings on record: cellular activity; MERTK-transfected 293A cells, phospho-Mer ELISA. The procedure: 293A cells (Thermo Fisher #R70507) were seeded at 1.5×10^6 cells/well onto 100 mm dish (Greiner #664169), in DMEM (Thermo Fisher #11995-040) containing 10% FBS (Thermo Fisher #26140-079), 1% MEM NEAA (Thermo Fisher #11140-050), 1% GlutaMax (Thermo Fisher #35050-061), and 1% Penicillin Streptomycin (Thermo Fisher #15140-122). 293A cells were incubated at 37° C., 5% CO2 for 24 h and then transfected with 6 μg MERTK DNA (Genecopoeia #EX-Z8208-M02) using TransIT LT1 transfection reagent (Mirus-Bio #MIR2305). After 24 h incubation, the transfected 293A cells were seeded at 1×10^5 cells/well onto 96-well plates (Corning #3904) in DMEM growth medium overnight. Test compounds were serially diluted to produce an 8-point dose curve in fresh serum-free medium to a final concentration of 0.3% DMSO (vehicle) and added to the cells and incubated for 1 h. Cells were then immediately lysed with 150 μL of cold 1× lysis buffer [20 mM Tris, 137 mM sodium chloride, 2 mM EDTA, 10% glycerol, 1% NP-40 alternative, 1 mM activated sodium orthovanadate, 1 mM PefaBloc SC (Sigma-Aldrich #11429868001), protease/phosphatase inhibitor tablet (Thermo Fisher #A32959)]. Lysates were clarified by centrifugation and 50 μL/well added into the human phospho-Mer DuoSet IC ELISA (R&D Systems #DYC2579-2). Assay was performed according to manufacturer's instructions and sample phospho-Mer concentrations were extrapolated using human phospho-Mer control (R&D Systems #841793) as a standard. Positive control wells (100% activity) contained DMSO-treated cell lysates. Negative control wells (0% activity) contained reference inhibitor-treated cell lysates. IC50 values were calculated by nonlinear regression analysis using a 4-parameter logistic curve fit in ActivityBase XE (IDBS).
In general terms: ELISA stands for enzyme-linked immunosorbent assay.

A further assay deals with KDR (Homo sapiens, UniProt P35968). Briefly: KDR autophosphorylation ELISA in HUVEC cells. In kind it is cell-based. Also on record: endogenous in cells; host or cells: HUVEC (Lonza #C2519A). Particulars: cellular activity, VEGF165-stimulated, phospho-KDR ELISA. A digest of the protocol: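 Compound pretreatment (1 h, 0.3% DMSO) of serum-starved HUVEC preceded a 5 min pulse of 100 ng/mL VEGF165, after which cells were lysed. Phospho-KDR was quantified by ELISA relative to stimulated and unstimulated controls.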
Chain of KDR (P35968 20-1356): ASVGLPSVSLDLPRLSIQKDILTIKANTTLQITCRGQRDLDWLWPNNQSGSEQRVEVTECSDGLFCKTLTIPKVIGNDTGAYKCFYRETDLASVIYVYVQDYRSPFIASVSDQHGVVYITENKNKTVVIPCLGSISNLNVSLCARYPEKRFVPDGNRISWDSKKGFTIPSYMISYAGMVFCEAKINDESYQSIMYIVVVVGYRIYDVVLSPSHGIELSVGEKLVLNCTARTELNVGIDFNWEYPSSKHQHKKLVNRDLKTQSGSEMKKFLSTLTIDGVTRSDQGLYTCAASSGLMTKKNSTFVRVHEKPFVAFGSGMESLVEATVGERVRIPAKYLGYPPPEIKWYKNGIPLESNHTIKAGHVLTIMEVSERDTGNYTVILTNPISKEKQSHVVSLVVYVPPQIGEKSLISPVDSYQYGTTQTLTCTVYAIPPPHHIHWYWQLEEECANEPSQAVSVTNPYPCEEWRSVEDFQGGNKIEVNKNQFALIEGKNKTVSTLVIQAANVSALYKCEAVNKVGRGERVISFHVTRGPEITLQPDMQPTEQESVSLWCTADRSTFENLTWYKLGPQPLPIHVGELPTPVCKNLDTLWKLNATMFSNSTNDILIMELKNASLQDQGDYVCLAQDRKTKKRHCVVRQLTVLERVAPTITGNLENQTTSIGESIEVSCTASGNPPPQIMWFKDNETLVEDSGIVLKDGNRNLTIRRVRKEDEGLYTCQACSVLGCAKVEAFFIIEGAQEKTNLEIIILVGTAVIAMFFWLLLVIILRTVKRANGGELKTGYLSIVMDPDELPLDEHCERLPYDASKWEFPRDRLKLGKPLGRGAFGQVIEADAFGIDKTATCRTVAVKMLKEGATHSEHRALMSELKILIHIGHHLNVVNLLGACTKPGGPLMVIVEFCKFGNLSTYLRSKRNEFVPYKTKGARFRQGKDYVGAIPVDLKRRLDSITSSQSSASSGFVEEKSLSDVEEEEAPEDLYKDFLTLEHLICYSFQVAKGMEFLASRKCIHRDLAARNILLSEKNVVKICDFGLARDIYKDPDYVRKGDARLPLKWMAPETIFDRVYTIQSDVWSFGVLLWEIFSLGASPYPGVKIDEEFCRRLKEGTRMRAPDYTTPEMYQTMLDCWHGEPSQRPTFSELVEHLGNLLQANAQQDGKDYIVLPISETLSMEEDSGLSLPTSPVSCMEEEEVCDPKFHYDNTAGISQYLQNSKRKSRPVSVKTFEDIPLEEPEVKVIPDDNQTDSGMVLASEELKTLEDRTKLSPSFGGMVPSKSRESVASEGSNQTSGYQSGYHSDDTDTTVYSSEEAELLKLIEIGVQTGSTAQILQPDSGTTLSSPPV

Usually IC50 stands for the concentration needed to halve the response being measured. Higher therefore signals weaker potency in that assay. For the compound `O=C(Nc1ccc(F)cc1)C1(C(=O)Nc2ccc(Oc3ccnc4cc(-c5cn[nH]c5)ccc34)cc2)CC1` [Compound 67, 1-N′-(4-Fluorophenyl)-1-N-[4-[7-(1H-pyrazol-4-yl)quinolin-4-yl]oxyphenyl]cyclopropane-1,1-dicarboxamide], the IC50 against Mer and against KDR was not above 10 nM throughout.
`Cn1cc(-c2ccc3c(Oc4ccc(NC(=O)C5(C(=O)N6CCc7cc(F)ccc76)CC5)cc4)ccnc3c2)cn1` [Compound 81, 1-(5-Fluoro-2,3-dihydroindole-1-carbonyl)-N-[4-[7-(1-methylpyrazol-4-yl)quinolin-4-yl]oxyphenyl]cyclopropane-1-carboxamide]: the IC50 was 100 to 300 nM at Mer and more than 300 nM at KDR.
For `O=C(Nc1ccc(F)cc1)C1(C(=O)Nc2ccc(Oc3ccnc4cc(-c5cnn(C(F)F)c5)ccc34)c(F)c2)CC1` [Compound 123, 1-N′-[4-[7-[1-(Difluoromethyl)pyrazol-4-yl]quinolin-4-yl]oxy-3-fluorophenyl]-1-N-(4-fluorophenyl)cyclopropane-1,1-dicarboxamide], in that order: 10 to 100 nM and not above 10 nM.
For `O=C(Nc1ccc(F)cc1)C1(C(=O)Nc2ccc(Oc3ccnc4cc(-c5cnn6c5CCC6)ccc34)cc2)CC1` [Compound 29, 1-N-[4-[7-(5,6-Dihydro-4H-pyrrolo[1,2-b]pyrazol-3-yl)quinolin-4-yl]oxyphenyl]-1-N′-(4-fluorophenyl)cyclopropane-1,1-dicarboxamide], in that order: 10 to 100 nM and 10 to 100 nM.
Take `O=C(Nc1ccc(F)cc1)C1(C(=O)Nc2ccc(Oc3ccnc4cc(-c5cnc6[nH]ncc6c5)ccc34)cc2)CC1` [Compound 39, 1-N′-(4-Fluorophenyl)-1-N-[4-[7-(1H-pyrazolo[3,4-b]pyridin-5-yl)quinolin-4-yl]oxyphenyl]cyclopropane-1,1-dicarboxamide]: the half-maximal inhibitory concentration (IC50) on Mer and at KDR was 10 to 100 nM each time.
Turning to `CN1CCN(c2cc(-c3ccc4c(Oc5ccc(NC(=O)C6(C(=O)Nc7ccc(F)cc7)CC6)cc5)ccnc4c3)ccn2)CC1` [Compound 111, 1-N′-(4-Fluorophenyl)-1-N-[4-[7-[2-(4-methylpiperazin-1-yl)pyridin-4-yl]quinolin-4-yl]oxyphenyl]cyclopropane-1,1-dicarboxamide], the IC50 at Mer and at KDR was 10 to 100 nM in each case.
In the case of `Cn1cnc(-c2ccc3c(Oc4ccc(NC(=O)C5(C(=O)Nc6ccc(F)cc6)CC5)cc4)ccnc3c2)c1` [Compound 69, 1-N′-(4-Fluorophenyl)-1-N-[4-[7-(1-methylimidazol-4-yl)quinolin-4-yl]oxyphenyl]cyclopropane-1,1-dicarboxamide], the IC50 at Mer is 10 to 100 nM; at KDR, not above 10 nM.
Regarding `O=C(Nc1ccc(F)cc1)C1(C(=O)Nc2ccc(Oc3ccnc4cc(-c5ncc[nH]5)ccc34)cc2)CC1` [Compound 74, 1-N′-(4-Fluorophenyl)-1-N-[4-[7-(1H-imidazol-2-yl)quinolin-4-yl]oxyphenyl]cyclopropane-1,1-dicarboxamide], the IC50 is 10 to 100 nM at Mer and not above 10 nM at KDR.
As for `Cn1ccc(-c2ccc3c(Oc4ccc(NC(=O)C5(C(=O)Nc6ccc(F)cc6)CC5)cc4)ccnc3c2)cc1=O` [Compound 117, 1-N′-(4-Fluorophenyl)-1-N-[4-[7-(1-methyl-2-oxopyridin-4-yl)quinolin-4-yl]oxyphenyl]cyclopropane-1,1-dicarboxamide], the values for the IC50 at Mer and on KDR were 10 to 100 nM and not above 10 nM, respectively.
For the compound `O=C(Nc1ccc(F)cc1)C1(C(=O)Nc2ccc(Oc3ccnc4cc(-c5cnn(C(F)(F)F)c5)ccc34)cc2)CC1` [Compound 12, 1-N′-(4-Fluorophenyl)-1-N-[4-[7-[1-(trifluoromethyl)pyrazol-4-yl]quinolin-4-yl]oxyphenyl]cyclopropane-1,1-dicarboxamide], the IC50 at Mer was in the range of 100 to 300 nM; against KDR it was 10 to 100 nM.
As to `O=C(Nc1ccc(F)cc1)C1(C(=O)Nc2ccc(Oc3ccnc4cc(-c5ncco5)ccc34)cc2)CC1` [Compound 66, 1-N′-(4-Fluorophenyl)-1-N-[4-[7-(1,3-oxazol-2-yl)quinolin-4-yl]oxyphenyl]cyclopropane-1,1-dicarboxamide], the IC50 on Mer and against KDR was 10 to 100 nM each time.
On to `O=C(Nc1ccc(F)cc1)C1(C(=O)Nc2ccc(Oc3ccnc4cc(-c5cnn(CC(F)(F)F)c5)ccc34)cc2)CC1` [Compound 16, 1-N′-(4-Fluorophenyl)-1-N-[4-[7-[1-(2,2,2-trifluoroethyl)pyrazol-4-yl]quinolin-4-yl]oxyphenyl]cyclopropane-1,1-dicarboxamide], for which the values for the IC50 on Mer and on KDR were 10 to 100 nM and not above 10 nM, respectively.
For the compound `COc1cc(-c2ccc3c(Oc4ccc(NC(=O)C5(C(=O)Nc6ccc(F)cc6)CC5)cc4)ccnc3c2)ccn1` [Compound 31, 1-N′-(4-Fluorophenyl)-1-N-[4-[7-(2-methoxypyridin-4-yl)quinolin-4-yl]oxyphenyl]cyclopropane-1,1-dicarboxamide], the IC50 on Mer and at KDR was 10 to 100 nM in each case.
`O=C(Nc1ccc(F)cc1)C1(C(=O)Nc2ccc(Oc3ccnc4cc(-c5ccccn5)ccc34)cc2)CC1` [Compound 85, 1-N′-(4-Fluorophenyl)-1-N-[4-(7-pyridin-2-ylquinolin-4-yl)oxyphenyl]cyclopropane-1,1-dicarboxamide]: the IC50 against Mer and on KDR was 10 to 100 nM each time.
In the case of `N#Cc1ccc(-c2ccc3c(Oc4ccc(NC(=O)C5(C(=O)Nc6ccc(F)cc6)CC5)cc4)ccnc3c2)cn1` [Compound 42, 1-N-[4-[7-(6-Cyanopyridin-3-yl)quinolin-4-yl]oxyphenyl]-1-N′-(4-fluorophenyl)cyclopropane-1,1-dicarboxamide], the IC50 against Mer and against KDR was 10 to 100 nM each time.
On to `O=C(Nc1ccc(F)cc1)C1(C(=O)Nc2ccc(Oc3ccnc4cc(-c5cccnc5O)ccc34)cc2)CC1` [Compound 52, 1-N′-(4-Fluorophenyl)-1-N-[4-[7-(2-hydroxypyridin-3-yl)quinolin-4-yl]oxyphenyl]cyclopropane-1,1-dicarboxamide], for which the IC50 was in the range of 100 to 300 nM at Mer and 10 to 100 nM against KDR.
In the case of `O=C(Nc1ccc(F)cc1)C1(C(=O)Nc2ccc(Oc3ccnc4cc(-c5ccncn5)ccc34)cc2)CC1` [Compound 114, 1-N′-(4-Fluorophenyl)-1-N-[4-(7-pyrimidin-4-ylquinolin-4-yl)oxyphenyl]cyclopropane-1,1-dicarboxamide], the IC50 at Mer was 10 to 100 nM; against KDR, not above 10 nM.
Take `O=C(Nc1ccc(F)cc1)C1(C(=O)Nc2ccc(Oc3ccnc4cc(-c5cnc[nH]5)ccc34)cc2)CC1` [Compound 72, 1-N′-(4-Fluorophenyl)-1-N-[4-[7-(1H-imidazol-5-yl)quinolin-4-yl]oxyphenyl]cyclopropane-1,1-dicarboxamide]: the IC50 against Mer and at KDR was not above 10 nM in each case.

Values taken from patent US12503438B2, “Compounds for the treatment of kinase-dependent disorders” (Exelixis, Inc., priority 2019, dated 2025).
